From publication PMC9837035 (Nature Communications, 2023)
Where “and” joins values, the source holds several entries; their conditions need not be identical. Identical values can stand only once.

Assays:
[1] = test system: BGLT3 RNA in HUDEP-2 cells; test: RT-qPCR of BGLT3 in HUDEP-2 cells; type: cell-based, human; conditions: Sup.Fig.11a; relative to DMSO = 1; replicate values
Method: (§1) Total cellular RNA was prepared using the Tissue Total RNA Mini Kit (FAVORGEN), and cDNA was synthesized using ReverTra Ace Master Mix (TOYOBO). Expression of target genes was analyzed using THUNDERBIRD SYBR qPCR Mix (TOYOBO) on a CFX Connect Real Time System (Bio-Rad). The qPCR data were acquired on CFX Maestro (Bio-Rad). Primers are listed in Supplementary Table 10. GAPDH was used as a reference. Primers were purchased from INTEGRATED DNA TECHNOLOGIES or FASMAC.

[2] = test system: BGLT3-knockdown HUDEP-2 cells; test: RT-qPCR of BGLT3, β- and γ-globin in BGLT3-knockdown HUDEP-2 cells; type: cell-based, human; conditions: 1 μM, relative to shctrl DMSO = 1, replicate values
Method: as §1
Retroviral infection was used as previously described to establish cell lines stably expressing BGLT3 and transfected with the pCX4-pur vector, as well as knockdown cell lines transfected with the pSUPER vector[58]. Briefly, retroviruses were produced by transfecting PLAT-E cells with pCX4-pur-BGLT3 or pSUPER-ctrl, pSUPER-BGLT3, or pSUPER-G9a using 5 μg/mL polyethylenimine MAX (PEI MAX, Polysciences). Two days after transfection, the culture supernatant was collected and filtered through a 0.45-μm filter (Millipore) and used for infection with 8 μg/mL polybrene (Sigma). Forty-eight hours after infection, the infected cells were selected with 0.2 μg/mL puromycin (InvivoGen). The clonal puromycin-resistant cells were established via limiting dilution. The desired clones were confirmed by western blotting or qPCR.

[3] = test system: H3K9ac at the β-globin locus; test: ChIP-qPCR with antibody against H3K9ac in HUDEP-2 cells; type: cell-based, human; parameters: ChIP-qPCR using antibodies against H3K9ac in HUDEP-2 cells treated with SAHA: unit not given here; conditions: for ChIP-qPCR using antibodies against H3K9ac in HUDEP-2 cells treated with SAHA: experiments 1-3, a/b replicates
Method: A total of 0.5–1 × 10^6 cells were cross-linked with 1% formaldehyde for 10 min at room temperature and the reaction was quenched with 250 mM glycine. Cross-linked cells were then lysed with buffer 1 (15 mM Tris-HCl (pH 7.5), 60 mM KCl, 15 mM NaCl, 5 mM MgCl2, 0.1 mM EGTA, 300 mM sucrose, […], 1 mM phenylmethanesulfonyl fluoride (PMSF), 0.5% NP40) and incubated on ice for 10 min. […] After centrifugation, the pellet was then re-suspended in MNase buffer (50 mM Tris-HCl (pH 7.5), 1 mM CaCl2, 4 mM MgCl2, 320 mM sucrose, 1 mM PMSF) and digested with 100 U of micrococcal nuclease (Takara) at 37 °C for 15 min. […] Beads were washed sequentially once with the following buffers: wash buffer A (50 mM Tris-HCl (pH 7.5), 75 mM NaCl, 10 mM EDTA, 0.01% NP40), wash buffer B (50 mM Tris-HCl (pH 7.5), 100 mM NaCl, 10 mM EDTA, 0.01% NP40), wash buffer C (50 mM Tris-HCl (pH 7.5), 175 mM NaCl, 10 mM EDTA, 0.01% NP40). After treatment with proteinase K in buffer 4 (20 mM Tris-HCl (pH 8.0), 10 mM EDTA, 400 mM NaCl, 0.5% SDS) at 56 °C overnight, DNA was purified using the FastGene Gel/PCR Extraction Kit (Nippon Genetics). The samples were analyzed by qPCR. Primers are listed in Supplementary Table 10. ChIP-seq experiments were performed by GENEWIZ. Tracks were visualized using the integrative genome viewer. ChIP-seq analysis were analyzed Cutadapt (V1.9.1) for QC, FastQC (V0.10.1) for QC assessment, Bowtie (V2.1.0) for mapping, strand cross-correlation (SCC) for ChIP quality assessment, MACS2 for peak calling, and R package ChIPpeakAnno for Peak annotated.

[4] = test system: rat myoblast cell line H9c2; test: Cell viability assay (WST-8), H9c2; type: cell-based; conditions: control (0 μM) = 100
Method: (§2) A WST-8 (2-(2-methoxy-4-nitrophenyl)-3-(4-nitrophenyl)-5-(2,4-disulfophenyl)-2H-tetrazolium) assay using a Cell Counting Kit-8 (DOJINDO) was performed to measure cell viability using an EnSpire microplate reader (PerkinElmer).

[5] = Cell viability assay (WST-8), HUDEP-2; type: cell-based, human; conditions: human, HUDEP-2 cells, control (0 μM) = 100
Method: as §2

HUDEP-2 cells = test: Cell viability assay (WST-8), HUDEP-2; type: cell-based, human; conditions: control (0 μM) = 100
Method: as §2

mice = test: Mouse acute toxicity assay, survival; type: in vivo; conditions: intravenous, 2-week observation
Method: All animal studies were approved by the Institutional Committee for Animal Experiments of the Institute of Microbial Chemistry, and were performed in accordance with relevant guidelines and regulations to minimize animal suffering. Four-week-old female ICR mice were purchased from Charles River Breeding Laboratories (Yokohama, Japan) and maintained in a specific pathogen-free barrier facility. […] Samples were dissolved in saline containing 10% DMSO and 1% Tween 80 and injected intravenously into mice.

Q: Which “BGLT3 expression in HUDEP-2 cells” value [1] does the source give for `O=C(CCCCCCC(=O)Nc1ccccc1)NO` [SAHA] here?
A: 4.739 and 6.125 and 5.109

Q: And the “β-globin gene in BGLT3-knockdown HUDEP-2 cells” value ([2]; shBGLT3 #1)?
A: 2.301 and 2.189 and 2.546

Q: And the “γ-globin gene in BGLT3-knockdown HUDEP-2 cells” value (“γ-globin gene” for short) ([2]; shBGLT3 #1)?
A: 4.852 and 4.747 and 4.193

Q: What about the “β-globin gene in BGLT3-knockdown HUDEP-2 cells” value ([2]; shBGLT3 #2) of the same compound?
A: 1.2128 and 1.2413 and 1.0394

Q: And the “γ-globin gene” value ([2]; shBGLT3 #2)?
A: 3.094 and 3.659 and 2.955

Q: What about the “β-globin gene in BGLT3-knockdown HUDEP-2 cells” value ([2]; shBGLT3 #3) of the same compound?
A: 2.448 and 2.303 and 2.192

Q: What about the “γ-globin gene” value ([2]; shBGLT3 #3) of the same compound?
A: 2.0995 and 2.031 and 1.807

Q: What about the “β-globin gene in BGLT3-knockdown HUDEP-2 cells” value ([2]; shctrl) of the same compound?
A: 3.928 and 4.654 and 3.722

Q: And the “γ-globin gene” value ([2]; shctrl)?
A: 13.6262 and 15.6907 and 11.2259

Q: What about the “ChIP-qPCR using antibodies against H3K9ac in HUDEP-2 cells treated with SAHA” value (from here on “ChIP-qPCR using antibodies”) ([3]; BGLT3 locus) of the same compound?
A: 4.594 and 4.901 and 3.587 and 4.136 and 7.628 and 5.8678

Q: And the “ChIP-qPCR using antibodies” value ([3]; HS1)?
A: 3.554 and 4.79 and 1.956 and 6.9673 and 5.354

Q: What about the “ChIP-qPCR using antibodies” value ([3]; HS2) of the same compound?
A: 3.581 and 3.815 and 1.139 and 1.6187 and 3.866 and 3.138

Q: And the “ChIP-qPCR using antibodies” value ([3]; HS3)?
A: 2.6549 and 2.681 and 1.467 and 2.973 and 2.979

Q: What about the “ChIP-qPCR using antibodies” value ([3]; HS4) of the same compound?
A: 3.747 and 4.945 and 3.035 and 2.8654 and 4.964 and 4.658

Q: And the “histone H3 acetylation at the β-globin gene locus” value ([3]; HUDEP-2, 1 μM, 1 day)?
A: increased

Q: What about the “ChIP-qPCR using antibodies” value ([3]; β-globin promoter) of the same compound?
A: 1.524 and 1.253 and 1.188 and 2.806 and 2.767

Q: What about the “ChIP-qPCR using antibodies” value ([3]; γ-globin promoter) of the same compound?
A: 0.7378 and 1.324 and 1.03 and 1.066 and 1.991 and 1.048

Q: What about the “ChIP-qPCR using antibodies” value ([3]; δ-globin promoter) of the same compound?
A: 4.601 and 5.375 and 3.661 and 4.076 and 5.898 and 5.487

Q: What does the source list for `COc1cc2c(NC3CCN(C(C)C)CC3)nc(N3CCC(F)(F)CC3)nc2cc1OCCCN1CCCC1` [UNC0642]?
A: cell viability in H9c2 cells ([4]; 0.039 μM): 113.444 and 97.977 and 82.062; cell viability in H9c2 cells ([4]; 0.156 μM): 119.033 and 94.058 and 85.452; cell viability in H9c2 cells ([4]; 0.625 μM): 120.242 and 96.207 and 89.831; cell viability in H9c2 cells ([4]; 2.5 μM): 126.737 and 89.381 and 103.107; cell viability in H9c2 cells ([4]; 10.0 μM): 69.940 and 117.826 and 118.079; viability at 0.00457247 μM ([5]; 0.00457247 μM): 97.1%; viability at 0.0137174 μM ([5]; 0.0137174 μM): 87.4%; viability at 0.0411523 μM ([5]; 0.0411523 μM): 86.5%; viability at 0.123457 μM ([5]; 0.123457 μM): 92.1%; viability at 0.37037 μM ([5]; 0.37037 μM): 85.8%; viability at 1.11111 μM ([5]; 1.11111 μM): 85.2%; viability at 3.33333 μM ([5]; 3.33333 μM): 54.8%; viability at 10 μM ([5]; 10 μM): 8.77%; cell viability in HUDEP-2 cells (HUDEP-2 cells; 0.00457247 μM): 98.5098 and 95.7411; cell viability in HUDEP-2 cells (HUDEP-2 cells; 0.0137174 μM): 90.6667 and 93.356; cell viability in HUDEP-2 cells (HUDEP-2 cells; 0.0411523 μM): 91.9216 and 91.6525; cell viability in HUDEP-2 cells (HUDEP-2 cells; 0.123457 μM): 105.098 and 92.3339; cell viability in HUDEP-2 cells (HUDEP-2 cells; 0.37037 μM): 89.4118 and 91.9932; cell viability in HUDEP-2 cells (HUDEP-2 cells; 1.11111 μM): 93.8039 and 89.2675; cell viability in HUDEP-2 cells (HUDEP-2 cells; 3.33333 μM): 61.4902 and 56.2181; cell viability in HUDEP-2 cells (HUDEP-2 cells; 10 μM): 12.549 and 12.2658; Number of alive mice (mice; 1.5625 mg/kg): 3/3; Number of alive mice (mice; 3.125 mg/kg): 3/3; Number of alive mice (mice; 6.25 mg/kg): 2/3; Number of alive mice (mice; 12.5 mg/kg): 1/3; Number of alive mice (mice; 25 mg/kg): 0/3
